Experimental data taken from patent publication US11986493B2 (University of Pittsburgh—Of the Commonwealth System of …, priority 2013, dated 2024).
“Also recorded” adds a separate entry of the source.

Tested on: subjects with pulmonary hypertension (WHO group I PAH, WHO group III PH)
Assay: Right heart catheterization: right heart/pulmonary artery hemodynamics, thermodilution cardiac output, PVR and SVR after inhaled NO and nebulized nitrite
Type: in vivo, human
Procedure: A total of 6 subjects with a confirmed diagnosis of pulmonary hypertension and meeting all inclusion/exclusion criteria were enrolled in the study which entailed a single right heart catheterization. The study population consisted of subjects with WHO group I PAH (n=3) and subjects with WHO group III PH (n=3) which received the dose escalation paradigm:
During the study right heart/pulmonary artery hemodynamics were measured as well as noninvasive systemic blood pressure monitoring and simultaneous RV echocardiography. Subjects were tested for the changes in pulmonary vascular resistance (PVR) measured by right heart catheterization and using thermodilution cardiac output measurement at time zero, at times 15, 30 and 45 minutes after completion of each nebulization dose.
Following right heart catheterization, the patient was stabilized for 20 minutes. Baseline blood collections and hemodynamic measurements were performed, followed by treatment with 40 ppm inhaled NO gas for […] with repeat hemodynamic measurements performed.
After stopping inhaled NO gas, a single dose of sildenafil was given if patients were on background sildenafil therapy at previously prescribed doses. 45-minutes after sildenafil dose baseline hemodynamics were performed.
Subjects were monitored carefully during and after the study treatment.
The study was conducted at the 3rd FL Catheterization Laboratory at Presbyterian Hospital of the University of Pittsburgh Medical Center (UPMC). Baseline vasoreactivity was recorded after Inhaled NO at 40 ppm for […]. […] Subjects were instructed to breathe as calmly, and deeply as possible until no more mist was formed in the nebulizer chamber. Subjects were also instructed to hold their breath for approximately 10 seconds after inhalation to allow the study drug to reach deep into the lungs.

[1] = Patient 4, nitrite 45 mg inhaled, 15 min
[2] = Patient 4, nitrite 45 mg inhaled, 30 min
[3] = Patient 4, nitrite 45 mg inhaled, 45 min
[4] = Patient 4, nitrite 45 mg inhaled, 60 min
[5] = Patient 4, nitrite 90 mg inhaled, 15 min
[6] = Patient 4, nitrite 90 mg inhaled, 30 min
[7] = Patient 4, nitrite 90 mg inhaled, 45 min
[8] = Patient 4, nitrite 90 mg inhaled, 60 min
[9] = Patient 5, nitrite 45 mg inhaled, 15 min
[10] = Patient 5, nitrite 45 mg inhaled, 30 min
[11] = Patient 5, nitrite 45 mg inhaled, 45 min
[12] = Patient 5, nitrite 45 mg inhaled, 60 min
[13] = Patient 5, nitrite 90 mg inhaled, 15 min
[14] = Patient 5, nitrite 90 mg inhaled, 30 min
[15] = Patient 5, nitrite 90 mg inhaled, 45 min
[16] = Patient 5, nitrite 90 mg inhaled, 60 min

## O=NO [nitrite, sodium nitrite]
Patient 3, nitrite 90 mg inhaled, 60 min
  mPAP: 37.34
[1]
  CI: 3.07
  CO: 5.37
  PAD: 26
  PAS: 69
  PCWP: 7
  PVR: 6.21
  PVR/SVR: 0.36
  RA: 3
  RVD: 3
  RVS: 74
  SVR: 17.01
  TPR: 7.51
  mPAP: 40.34
[2]
  CI: 2.69
  CO: 4.7
  PAD: 24
  PAS: 70
  PCWP: 8
  PVR: 6.67
  PVR/SVR: 0.34
  RA: 4
  RVD: 3
  RVS: 67
  SVR: 19.58
  TPR: 8.37
  mPAP: 39.34
[3]
  CI: 2.71
  CO: 4.75
  PAD: 23
  PAS: 68
  PCWP: 9
  PVR: 6.11
  PVR/SVR: 0.32
  RA: 2
  RVD: 2
  RVS: 68
  SVR: 18.95
  TPR: 8.00
  mPAP: 38.01
[4]
  CI: 3.03
  CO: 5.31
  PAD: 21
  PAS: 69
  PCWP: 8
  PVR: 5.46
  PVR/SVR: 0.33
  RA: 3
  RVD: 2
  RVS: 68
  SVR: 16.57
  TPR: 6.97
  mPAP: 37.01
[5]
  CI: 3.08
  CO: 5.39
  PAD: 23
  PAS: 71
  PCWP: 8
  PVR: 5.75
  PVR/SVR: 0.39
  RA: 3
  RVD: 3
  RVS: 62
  SVR: 14.78
  TPR: 7.24
  mPAP: 39.01
[6]
  CI: 3.03
  CO: 5.3
  PAD: 22
  PAS: 70
  PCWP: 7
  PVR: 5.85
  PVR/SVR: 0.37
  RA: 4
  RVD: 3
  RVS: 70
  SVR: 15.73
  TPR: 7.17
  mPAP: 38.01
[7]
  CI: 3.08
  CO: 5.39
  PAD: 23
  PAS: 69
  PCWP: 7
  PVR: 5.81
  PVR/SVR: 0.39
  RA: 2
  RVD: 2
  RVS: 74
  SVR: 14.91
  TPR: 7.11
  mPAP: 38.34
[8]
  CI: 3.03
  CO: 5.3
  PAD: 21
  PAS: 67
  PCWP: 8
  PVR: 5.35
  PVR/SVR: 0.33
  RA: 2
  RVD: 3
  RVS: 70
  SVR: 16.04
  TPR: 6.86
  mPAP: 36.34
[9]
  CI: 2.80
  CO: 4.95
  PAD: 16
  PAS: 66
  PCWP: 3
  PVR: 5.99
  PVR/SVR: 0.48
  RA: 1
  RVD: 1
  RVS: 68
  SVR: 12.53
  TPR: 6.60
  mPAP: 32.67
[10]
  CI: 2.50
  CO: 4.43
  PAD: 15
  PAS: 66
  PCWP: 3
  PVR: 6.55
  PVR/SVR: 0.44
  RA: 1
  SVR: 14.75
  TPR: 7.22
  mPAP: 32.00
[11]
  CI: 2.75
  CO: 4.86
  PA sat: 60
  PAD: 14
  PAS: 67
  PCWP: 4
  PVR: 5.69
  PVR/SVR: 0.42
  RA: 1
  SVR: 13.65
  TPR: 6.52
  mPAP: 31.67
[12]
  CI: 2.52
  CO: 4.46
  PAD: 17
  PAS: 74
  PCWP: 7
  PVR: 6.50
  PVR/SVR: 0.49
  RA: 3
  RVD: 1
  RVS: 76
  SVR: 13.16
  TPR: 8.07
  mPAP: 36.01
[13]
  CI: 2.77
  CO: 4.91
  PAD: 16
  PAS: 76
  PCWP: 2
  PVR: 6.93
  PVR/SVR: 0.50
  RA: 1
  SVR: 13.778
  TPR: 7.33
  mPAP: 36.01
[14]
  CI: 2.81
  CO: 4.97
  PAD: 16
  PAS: 69
  PCWP: 3
  PVR: 6.17
  PVR/SVR: 0.47
  RA: 1
  SVR: 13.21
  TPR: 6.78
  mPAP: 33.67
[15]
  CI: 2.86
  CO: 5.07
  PAD: 13
  PAS: 70
  PCWP: 3
  PVR: 5.72
  PVR/SVR: 0.47
  RA: 1
  SVR: 12.16
  TPR: 6.31
  mPAP: 32.01
[16]
  CI: 3.24
  CO: 5.73
  PAD: 14
  PAS: 74
  PCWP: 3
  PVR: 5.41
  PVR/SVR: 0.44
  RA: 1
  SVR: 12.33
  TPR: 5.93
  mPAP: 34.01
Patient 6, nitrite 45, 15 min
  CI: 2.9849
  CO: 5.94
  PAD: 22
  PAS: 51
  PCWP: 12
  PVR: 3.3116
  PVR/SVR: 0.2878
  RA: 7
  SVR: 11.505
  TPR: 5.3318
  mPAP: 31.671
Patient 6, nitrite 45, 30 min
  CI: 2.8769
  CO: 47.25
  PAD: 20
  PAS: 48
  PCWP: 10
  PVR: 3.3777
  PVR/SVR: 0.2427
  RA: 6
  SVR: 13.917
  TPR: 5.1244
  mPAP: 29.337
Patient 6, nitrite 45, 45 min
  CI: 3.0704
  CO: 6.11
  PAD: 23
  PAS: 52
  PCWP: 9
  PVR: 3.8741
  PVR/SVR: 0.2958
  RA: 6
  SVR: 13.095
  TPR: 5.3471
  mPAP: 32.671
Patient 6, nitrite 45, 60 min
  CI: 2.9196
  CO: 5.81
  PAD: 28
  PAS: 50
  PCWP: 8
  PVR: 4.7053
  PVR/SVR: 0.3417
  RA: 6
  SVR: 13.771
  TPR: 6.0822
  mPAP: 35.338
Patient 6, nitrite 90, 15 min
  CI: 3.3568
  CO: 6.68
  PAD: 24
  PAS: 52
  PCWP: 9
  PVR: 3.6434
  PVR/SVR: 0.3444
  RA: 6
  SVR: 10.58
  TPR: 4.9907
  mPAP: 33.338
Patient 6, nitrite 90, 30 min
  CI: 3.6683
  CO: 7.3
  PAD: 20
  PAS: 48
  PCWP: 6
  PVR: 3.1969
  PVR/SVR: 0.3125
  RA: 6
  SVR: 10.23
  TPR: 4.0188
  mPAP: 29.337
Patient 6, nitrite 90, 45 min
  CI: 3.7085
  CO: 7.38
  PAD: 24
  PAS: 52
  PCWP: 4
  PVR: 3.9753
  PVR/SVR: 0.4074
  RA: 6
  SVR: 9.7574
  TPR: 4.5173
  mPAP: 33.338
Patient 6, nitrite 90, 60 min
  CI: 4.3417
  CO: 8.64
  PAD: 28
  PAS: 55
  PCWP: 4
  PVR: 3.82
  PVR/SVR: 0.4877
  RA: 8
  RVD: 8
  RVS: 47
  SVR: 7.8329
  TPR: 4.2829
  mPAP: 37.005
Patients with PAH (WHO Group 1 and Group 3; n=6), inhaled doses of 45 mg and 90 mg
  RA pressure (right atrial pressure): dose-dependent reduction
Patients with PAH (WHO Group 1 and Group 3; n=6), inhaled doses of 45 mg and 90 mg, listed as inhaled nitrite
  PCWP (pulmonary capillary wedge pressure): lowers; also recorded: dose-dependent reduction
Some patients of the study
  response of patients non-responsive to inhaled NO: responsive
